The text below walks through data of patent publication US10966968B2 (Amarin Pharmaceuticals Ireland Limited, priority 2013, dated 2021).

Data set [1] in a line: Safety evaluation in the drug-drug interaction study (adverse events, laboratory, vital signs). The data set is classed as in vivo, human. The following applies: rosiglitazone 8 mg with ethyl eicosapentaenoate 4 g/day, healthy subjects. The source says: Safety evaluations consisted of monitoring adverse events (AEs), clinical laboratory measurements (chemistry, hematology, and urinalysis), vital signs (systolic and diastolic blood pressure, heart rate, respiratory rate and oral body temperature), and physical examination findings.

The target of the next data set is T1, CYP2C8 (Homo sapiens, UniProt P10632).
T1 construct: from tissue; host or cells: living healthy human subjects (in vivo; endogenous enzyme)
T1 sequence (P10632 1-490): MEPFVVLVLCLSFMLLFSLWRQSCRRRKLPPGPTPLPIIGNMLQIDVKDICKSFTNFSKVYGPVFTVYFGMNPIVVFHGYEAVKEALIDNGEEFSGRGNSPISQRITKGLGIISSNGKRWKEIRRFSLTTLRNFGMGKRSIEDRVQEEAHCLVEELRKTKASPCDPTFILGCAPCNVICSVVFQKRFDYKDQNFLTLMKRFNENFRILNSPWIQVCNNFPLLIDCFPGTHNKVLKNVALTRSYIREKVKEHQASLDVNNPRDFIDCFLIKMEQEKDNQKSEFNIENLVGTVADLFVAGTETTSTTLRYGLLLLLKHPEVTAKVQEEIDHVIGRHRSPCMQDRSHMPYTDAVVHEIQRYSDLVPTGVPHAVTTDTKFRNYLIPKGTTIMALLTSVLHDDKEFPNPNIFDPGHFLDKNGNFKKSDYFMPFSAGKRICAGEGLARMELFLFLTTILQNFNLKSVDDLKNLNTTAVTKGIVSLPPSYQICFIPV
The experiment in a line: Effect of ethyl eicosapentaenoate on metabolism/exposure of rosiglitazone (CYP2C8 substrate) in the drug-drug interaction study. In kind it is in vivo. The following applies: at steady state, 4 g/day, healthy subjects. The source says:
Nonparametric statistics included median and data range (minimum-maximum).

The nature of data set [2]: Phase 1 open-label crossover drug-drug interaction study: rosiglitazone plasma pharmacokinetics without and with ethyl eicosapentaenoate.
Experimental: Eligibility assessments and clinical laboratory testing were performed within a 28-day screening period. All eligible subjects received the same treatment. […] On days 12-29, subjects received oral doses of 4 g icosapent ethyl (2 liquid-filled 1 g gelatin capsules) twice daily, with or following the morning and evening meals. All study drugs were taken with 240 mL water. Rosiglitazone was administered by study personnel at the research unit, and thus compliance calculations were not necessary. icosapent ethyl was either administered by study personnel during scheduled visits or self-administered by subjects while away from the study site. Compliance to icosapent ethyl (days 12-29) was evaluated by counting and reconciling unused capsules against subject diaries and was calculated as: (used capsules/total dosing days×4)×100.
Doses selected for study were based on established PK profiles of both agents.
Eligible subjects were healthy nonsmoking men and women between the ages of 19 and 55 years with a body mass index >18 and ≤35 kg/m^2 and in good health as determined by medical history and medical examination. Women who were pregnant, nursing, or planning a pregnancy were excluded; female subjects of childbearing potential were required to use an acceptable method of birth control. Subjects were prohibited from ingesting medications and supplements that contained EPA and/or docosahexaenoic acid (DHA), fish meals, foods fortified with EPA and/or DHA, lipid-medications and dietary supplements with known or potential lipid-altering effects including statins, niacin >200 mg/day, fibrates, ezetimibe, and bile acid sequestrants or medications or supplements that may influence the measurements of EPA concentrations in plasma until after the last PK sample collection.
The conditions of data set [3]: independent of dose; cited from earlier work.
Where [4] appears, read: both, human, plasma, oral, 8 mg.

With `CC/C=C\C/C=C\C/C=C\C/C=C\C/C=C\CCCC(=O)OCC` [ethyl eicosapentaenoate, all-cis eicosa-5,8,11,14,17-pentaenoic acid ethyl ester], in data set [1], the “safety and tolerability of concomitant administration” value is “safe and well-tolerated”; the serious adverse events entry was “No serious adverse events”. Moreover, on CYP2C8, the “exposure changes of rosiglitazone when administered concomitantly” value is “no clinically relevant exposure changes” and the “inhibition of the metabolism of rosiglitazone” value is “does not inhibit”.
By Tmax is commonly meant the time at which the peak concentration occurs. By half-life is commonly meant the time needed for the level to fall by half in the phase considered. Low readings indicate fast loss, high ones slow loss. Usually AUC(0-t) stands for exposure summed from dosing to a finite time, without extrapolation to infinity. Read a low AUC(0-t) as low exposure. Usually Cmax stands for the highest concentration seen after dosing. The term AUC(0-inf) denotes the area under the concentration-time curve extrapolated to infinity. As to `CN(CCOc1ccc(CC2SC(=O)NC2=O)cc1)c1ccccn1` (centres unmarked) [Rosiglitazone, rosiglitazone], the Tmax in data set [2] (both, human, plasma, oral) was 0.8 h; in data set [2] (setting [4]), 0.8 h. For the same compound, the half-life in data set [2] (both, human, plasma, oral) is 4.1 h; in data set [2] (setting [4]), 4.4 h. For the same compound, the AUC(0-t) in data set [2] (setting [4]) came to 3150 ng·h/mL. For the same compound, the Cmax in data set [2] (both, human, plasma, oral, 8 mg, Cmax, rosiglitazone 8 mg alone, mean (SD)) came out at 672 ng/mL; in data set [2] (both, human, plasma, oral, 8 mg, LSGM Cmax, rosiglitazone alone, least squares geometric mean from mixed models) it was 647 ng/mL; in data set [2] (both, human, plasma, oral, Cmax, rosiglitazone 8 mg with EPA 4 g, mean (SD)) it was 673 ng/mL; in data set [2] (both, human, plasma, oral, LSGM Cmax, rosiglitazone + EPA, least squares geometric mean from mixed models) it was 650 ng/mL. Besides, the AUC(0-inf) in data set [2] (both, human, plasma, oral, 8 mg, LSGM AUC0-inf, rosiglitazone alone, least squares geometric mean from mixed models) was 3150 ng·h/mL; in data set [2] (both, human, plasma, oral, AUC0-inf, rosiglitazone 8 mg with EPA 4 g (day 29), healthy subjects, plasma, mean (SD)), 2920 ng·h/mL; in data set [2] (both, human, plasma, oral, LSGM AUC0-inf, rosiglitazone + EPA, least squares geometric mean from mixed models), 2840 ng·h/mL; in data set [2] (both, human, plasma, po, 8 mg, AUC0-inf, rosiglitazone 8 mg single oral dose alone (day 11), healthy subjects, plasma, mean (SD)), 3230 ng·h/mL. Moreover, the Kel in data set [2] (rosiglitazone 8 mg alone, mean (SD)) was 0.16 (0.02) 1/h; in data set [2] (rosiglitazone 8 mg with EPA 4 g, mean (SD)), 0.17 (0.03) 1/h. The “difference in AUC0-inf and Cmax, alone compared to co-administration with ethyl eicosapentaenoate” value in data set [2] (rosiglitazone 8 mg, ethyl eicosapentaenoate 4 g/day) is “no significant difference”. In addition, in data set [1], the “safety and tolerability of concomitant administration” value is “safe and well-tolerated”. In addition, the serious adverse events entry in data set [1] was “No serious adverse events”. In addition, the elimination half-life in data set [3] was 3 to 4 h.
